Measurements taken from patent US20190119282A1, “IMIDAZOPYRIDAZINES USEFUL AS INHIBITORS OF THE PAR-2 SIGNALING PATHWAY” (Vertex Pharmaceuticals Incorporated, priority 2013, published 2019).

Key:
[1] = molecular target: T1, PAR2 (HT-29 cells, SLIGKV activation) (Homo sapiens, UniProt P55085); assay: Ca FLIPR TETRA assay, ANTAGONIST mode, stimulation with 8 μM SLIGKV; type: cell-based; details: HT-29 cells
T1 construct: host or cells: HT-29 cells
T1 sequence (P55085 26-397): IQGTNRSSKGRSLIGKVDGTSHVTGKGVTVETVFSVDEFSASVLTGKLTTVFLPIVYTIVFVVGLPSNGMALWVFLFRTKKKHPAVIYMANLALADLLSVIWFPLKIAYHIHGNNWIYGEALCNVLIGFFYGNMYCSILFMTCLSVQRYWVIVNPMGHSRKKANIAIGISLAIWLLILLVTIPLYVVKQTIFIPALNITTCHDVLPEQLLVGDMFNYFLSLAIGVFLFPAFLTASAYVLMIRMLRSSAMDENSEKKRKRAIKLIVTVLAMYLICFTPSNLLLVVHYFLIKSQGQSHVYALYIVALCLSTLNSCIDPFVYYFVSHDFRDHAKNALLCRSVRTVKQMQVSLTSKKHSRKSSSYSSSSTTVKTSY
In short: (§1)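 HT-29 cells in 1% FBS/McCoy's overnight, loaded with Calcium 5 dye; compounds added and read first for intrinsic Ca2+ activation, then incubated 30 min at r.t. Antagonism read on FLIPR Tetra after stimulation with final 8 μM SLIGKV, 3.1 U/mL trypsin, 1 U/mL thrombin or 0.6 μM UTP.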

[2] = test system: UTP-stimulated Ca2+ response in HT-29 cells; assay: Ca FLIPR TETRA assay, ANTAGONIST mode, stimulation with 0.6 μM UTP; type: cell-based, human; details: Homo sapiens, HT-29 cells
In short: as §1

[3] = test system: Thrombin-stimulated Ca2+ response in HT-29 cells; assay: Ca FLIPR TETRA assay, ANTAGONIST mode, stimulation with 1 U/mL Thrombin; type: cell-based, human; details: Homo sapiens, HT-29 cells
In short: as §1

[4] = molecular target: T2, PAR2 (HT-29 cells, trypsin activation) (Homo sapiens, UniProt P55085); assay: Ca FLIPR TETRA assay, ANTAGONIST mode, stimulation with 3.1 U/mL trypsin; type: cell-based; details: HT-29 cells
T2 construct: host or cells: HT-29 cells
T2 sequence (P55085 26-397): T1 sequence (P55085 26-397)
In short: as §1

[5] = antagonist mode, stimulation with 8 μM SLIGKV
[6] = antagonist mode, stimulation with 0.6 μM UTP
[7] = antagonist mode, stimulation with 1 U/mL Thrombin
[8] = antagonist mode, stimulation with 3.1 U/mL trypsin
[9] = stimulation with 1 U/mL Thrombin
[10] = stimulation with 3.1 U/mL trypsin

| IC50 [1, 5] | IC50 [2, 6] | IC50 [3, 7] | IC50 [4, 8] | IC50 ([1]; stimulation with 8 μM SLIGKV) | IC50 ([2]; stimulation with 0.6 μM UTP) | IC50 [3, 9] | IC50 [4, 10] | SMILES | also measured |
| --- | --- | --- | --- | --- | --- | --- | --- | --- | --- |
| 2.8 nM | > 1000 nM | 540 nM | 4.3 nM | – | – | – | – | Cc1cccc(-c2cc(C(C)(C)C)c3nc(C(=O)N4CCN(C(=O)c5nc(C)n[nH]5)CC4(C)C)cn3n2)c1 [Compound I-408] | – |
| 400 nM | > 50000 nM | > 1000 nM | 417 nM | – | – | – | – | CC(C)(CO)c1cc(-c2ccc(F)cc2)nn2cc(C(=O)N3CCNC(=O)C3(C)C)nc12 [Compound I-189] | – |
| 0.7 nM | > 1000 nM | > 1000 nM | 1 nM | – | – | – | – | CC(C)(C)c1cc(-c2ccc(F)cc2)nn2cc(C(=O)N3CCN(C(=O)c4ccon4)CC3(C)C)nc12 [Compound I-203] | – |
| 3.9 nM | > 1000 nM | 570 nM | 5.6 nM | – | – | – | – | Cc1cc(-c2cc(C(C)C)c3nc(C(=O)N4CCN(C(=O)[C@H]5C[C@@](O)(C(F)(F)F)C5)CC4(C)C)cn3n2)ccc1F [Compound I-265] | – |
| 2 nM | > 1000 nM | > 1000 nM | 3.2 nM | – | – | – | – | Cc1nc(C(=O)N2CCN(C(=O)c3cn4nc(-c5ccc(C)c(F)c5)cc(C(C)C)c4n3)C(C)(C)C2)c[nH]1 [Compound I-376] | – |
| – | – | – | – | 2800 nM | 18000 nM | 20000 nM | 6800 nM | CC(C)c1cc(Cl)nn2cc(C(=O)N3CCN(C(=O)OC(C)(C)C)CC3(C)C)nc12 [Compound I-18, tert-Butyl 4-(6-chloro-8-isopropyl-imidazo[1,2-b]pyridazine-2-carbonyl)-3,3-dimethyl-piperazine-1-carboxylate] | – |
| 2.7 nM | > 1000 nM | 840 nM | 3.9 nM | – | – | – | – | CC(C)(C)c1cc(-c2ccc(F)cc2)nn2cc(C(=O)N3CCN(C(=O)c4ccncc4)CC3(C)C)nc12 [Compound I-286] | – |
| 82.5 nM | > 1000 nM | > 1000 nM | 170 nM | – | – | – | – | COC(=O)CC1(C)C(=O)NCCN1C(=O)c1cn2nc(-c3ccc(F)cc3)cc(C(C)(C)C)c2n1 (stereo not shown) [Compound I-509] | – |
| 4.2 nM | > 1000 nM | > 1000 nM | 4.2 nM | – | – | – | – | CC(C)(C)c1cc(-c2ccc(F)c(Cl)c2)nn2cc(C(=O)N3CCN(C(=O)[C@H]4CC[C@H](C(=O)O)CC4)CC3(C)C)nc12 [Compound I-488] | – |
| 4.3 nM | > 1000 nM | > 1000 nM | 7.1 nM | – | – | – | – | CC(C)c1cc(-c2ccc(C(F)(F)F)cc2)nn2cc(C(=O)N3CCN(C(=O)c4ccncn4)CC3(C)C)nc12 [Compound I-247] | – |
| 3 nM | > 1000 nM | > 1000 nM | 2.6 nM | – | – | – | – | CC(C)(C)c1cc(-c2ccc(C(F)F)cc2)nn2cc(C(=O)N3CCNC(=O)C3(C)C)nc12 [Compound I-349] | – |
| 1.8 nM | 3900 nM | 2500 nM | 4 nM | – | – | – | – | CN1CCN(C(=O)c2cn3nc(-c4ccc(F)cc4)cc(C(C)(C)C)c3n2)C(C)(C)C1=O [Compound I-188] | – |
| 0.1 nM | > 100 nM | > 100 nM | 0.2 nM | – | – | – | – | CC(C)c1cc(-c2ccc(F)c(F)c2)nn2cc(C(=O)N3CCN(C(=O)[C@H]4C[C@](O)(C(F)(F)F)C4)CC3(C)C)nc12 [Compound I-257] | – |
| – | – | – | – | 7 nM | 25000 nM | 21000 nM | 14 nM | CC(C)C(O)C(=O)N1CCN(C(=O)c2cn3nc(-c4ccc(F)cc4)cc(C4CC4)c3n2)C(C)(C)C1 (stereo not shown) [Compound I-22, 1-[4-[8-cyclopropyl-6-(4-fluorophenyl)imidazo[1,2-b]pyridazine-2-carbonyl]-3,3-dimethyl-piperazin-1-yl]-2-hydroxy-3-methyl-butan-1-one] | – |
| 3.6 nM | > 1000 nM | > 1000 nM | 2.8 nM | – | – | – | – | Cc1nnc(C(=O)N2CCN(C(=O)c3cn4nc(-c5ccc(C(F)(F)F)cc5)cc(C(C)(C)C)c4n3)C(C)(C)C2)o1 [Compound I-400] | – |
| 1.8 nM | > 1000 nM | > 1000 nM | 3 nM | – | – | – | – | CC(=O)N1CCN(C(=O)c2cn3nc(-c4ccc(F)cc4)cc(C(C)(C)C)c3n2)C(C)(C)C1 [Compound I-513] | – |
| – | – | – | – | 430 nM | 18000 nM | 16000 nM | 1100 nM | COC(=O)[C@@H]1CCN(C(=O)c2cn3nc(-c4ccc(F)cc4)cc(C)c3n2)C[C@@H]1C [Compound I-10, (3R,4R)-Methyl 1-(6-(4-fluorophenyl)-8-methylimidazo[1,2-b]pyridazine-2-carbonyl)-3-methylpiperidine-4-carboxylate] | – |

| IC50 [1, 5] | IC50 [2, 6] | IC50 [3, 7] | IC50 [4, 8] | IC50 ([1]; stimulation with 8 μM SLIGKV) | IC50 ([2]; stimulation with 0.6 μM UTP) | IC50 [3, 9] | IC50 [4, 10] | SMILES | also measured |
| --- | --- | --- | --- | --- | --- | --- | --- | --- | --- |
| – | – | – | – | 54 nM | > 5000 nM | > 5000 nM | 82 nM | O=C(c1cn2nc(-c3ccc(F)cc3)cc(C(F)(F)F)c2n1)N1CCC(n2cc(-c3ccccc3)[nH]c2=O)CC1 [Compound I-80] | – |
| 635 nM | > 1000 nM | > 1000 nM | > 1000 nM | – | – | – | – | C[C@H]1C(=O)NCCN1C(=O)c1cn2nc(-c3ccc(F)cc3)cc(C(C)(C)C)c2n1 [Compound I-547] | – |
| 0.6 nM | > 1000 nM | > 1000 nM | 0.8 nM | – | – | – | – | COC(=O)C1(C)CCC(C(=O)N2CCN(C(=O)c3cn4nc(-c5ccc(F)cc5)cc(C(C)(C)C)c4n3)C(C)(C)C2)CC1 (stereo not shown) [Compound I-526] | – |
| – | – | – | – | 3 nM | 15000 nM | 15000 nM | 5 nM | CC(C)c1cc(-c2ccc(F)cc2)nn2cc(C(=O)N3CCN(C(=O)[C@H](O)CC4CC4)[C@@H](C)C3)nc12 [Compound I-171] | – |
| 57 nM | > 1000 nM | > 1000 nM | 128 nM | – | – | – | – | CC(C)c1cc(-c2cccc(F)c2)nn2cc(C(=O)N3CCN(C(=O)C(C)(C)O)CC3(C)C)nc12 [Compound I-250] | – |
| 1.3 nM | 230 nM | 230 nM | 2.5 nM | – | – | – | – | CC(C)(O)CN1CCN(C(=O)c2cn3nc(-c4ccc(F)cc4)cc(C(C)(C)C)c3n2)C(C)(C)C1=O [Compound I-225] | – |
| – | – | – | – | 1400 nM | 17000 nM | 21000 nM | 6800 nM | CC(C)c1cc(-c2ccc(F)cc2)nn2cc(C(=O)N3CCN(C(=O)C4(N)CCCCC4)[C@@H](C)C3)nc12 [Compound I-156] | – |
| – | – | – | – | 22000 nM | > 50000 nM | > 50000 nM | 2000 nM | CCC(=O)N1CCN(C(=O)c2cn3nc(-c4ccc(F)cc4)cc(C(F)(F)F)c3n2)CC1 [Compound I-59] | – |
| – | – | – | – | 3 nM | > 50000 nM | > 50000 nM | 10 nM | C=C(C)c1cc(-c2ccc(F)cc2)nn2cc(C(=O)N3CCN(C(=O)[C@H](O)CC(C)(C)C)[C@@H](C)C3)nc12 [Compound I-99] | – |
| – | – | – | – | 200 nM | 54000 nM | 54000 nM | 2000 nM | CCc1cc(-c2ccc(F)cc2)nn2cc(C(=O)N3CCN(C(=O)CC4CCOCC4)[C@@H](C)C3)nc12 [Compound I-164] | – |
| 20.5 nM | > 1000 nM | > 1000 nM | 20 nM | – | – | – | – | CC(C)c1cc(-c2ccc(F)cc2)nn2cc(C(=O)N3CCN(C(=O)[C@H](O)CC(C)(C)C)C[C@H]3C)nc12 [Compound I-196] | – |
| 5.6 nM | > 1000 nM | > 1000 nM | 6.2 nM | – | – | – | – | Cc1n[nH]c(C(=O)N2CCN(C(=O)c3cn4nc(-c5ccc(F)c(C)c5)cc(C(C)C)c4n3)C(C)(C)C2)n1 [Compound I-345] | – |
| – | – | – | – | 26 nM | 13000 nM | 15000 nM | 160 nM | CCCC(=O)N1CCN(C(=O)c2cn3nc(-c4ccc(F)cc4)cc(C(C)C)c3n2)C[C@@H]1C [Compound I-124] | – |
| – | – | – | – | – | – | – | – | CC(C)(C)c1cc(-c2ccc(F)cc2)nn2cc(C(=O)N3CCN(C(=O)[C@H]4C[C@H](C(=O)O)C4)CC3(C)C)nc12 [Compound I-556, (1R,3R)-3-(4-(8-(tert-butyl)-6-(4-fluorophenyl)imidazo[1,2-b]pyridazine-2-carbonyl)-3,3-dimethylpiperazine-1-carbonyl)cyclobutane-1-carboxylic acid] | IC50 ([1]; antagonist mode, 8 μM SLIGKV): 9 nM; IC50 ([2]; antagonist mode, 0.6 μM UTP): > 1000 nM; IC50 ([3]; antagonist mode, 1 U/mL Thrombin): > 1000 nM; IC50 ([4]; antagonist mode, 3.1 U/mL trypsin): 21 nM |
| – | – | – | – | 1400 nM | > 50000 nM | > 50000 nM | 6400 nM | CC(C)c1cc(-c2ccc(F)cc2)nn2cc(C(=O)N3CCN(C(=O)C4(N)CC4)[C@@H](C)C3)nc12 [Compound I-154] | – |
| 7.6 nM | > 1000 nM | > 1000 nM | 7.1 nM | – | – | – | – | Cc1cc(-c2cc(C(C)(C)C)c3nc(C(=O)N4CCN(c5c[nH]cn5)C(=O)C4(C)C)cn3n2)ccc1F [Compound I-418] | – |
| 1.1 nM | > 1000 nM | > 1000 nM | 0.9 nM | – | – | – | – | CC(C)(C)c1cc(-c2ccc(Cl)c(F)c2)nn2cc(C(=O)N3CCNC(=O)C3(C)C)nc12 [Compound I-419] | – |
